Values joined by “and” are separate entries in the source; they are usually repeats but may differ in a detail not shown here. Equal values may be shown once. Inconclusive results and toxic doses are left out.
Test system: CD2F1 mice, P388/DHAQ leukemia ip, median survival T/C
Assay: NCI In Vivo Anticancer Drug Screen. Data for tumor model P388 Leukemia resistant to Dihydroxy Anthracenedione; NSC 299195 (intraperitoneal) in CD2F1 (CDF1) mice
Details: endpoint: median survival time, higher = longer survival
Method: The antitumor activity of compounds was measured in mice bearing transplantable tumors. Survival or tumor size were measured and the results are expressed as the measurement made in the treated group (T) divided by the measurement made in the vehicle treated control group (C). The tumor model used in this assay is P388 Leukemia resistant to Dihydroxy Anthracenedione; NSC 299195 (intraperitoneal) in CD2F1 (CDF1) mice

## Cc1c2ccncc2c(C)c2c1[nH]c1ccccc12
dose: 13.0 mg/kg/injection, schedule: Q04DX003 (ip), vehicle: saline with Tween-80
  T/C: 101 % of control and 107 % of control
dose: 25.9 mg/kg/injection, schedule: Q04DX002 (ip), vehicle: saline with Tween-80
  T/C: 97 % of control
dose: 32.4 mg/kg/injection, schedule: Q04DX002 (ip), vehicle: Klucel (hydroxypropylcellulose) (HPC)
  T/C: 111 % of control
dose: 43.2 mg/kg/injection, schedule: Q04DX002 (ip), vehicle: saline with Tween-80
  T/C: 105 % of control
dose: 54.0 mg/kg/injection, schedule: Q04DX002 (ip), vehicle: Klucel (hydroxypropylcellulose) (HPC)
  T/C: 100 % of control
dose: 60.0 mg/kg/injection, schedule: Q04DX003 (ip), vehicle: saline with Tween-80
  T/C: 116 % of control and 223 % of control and 98 % of control
dose: 72.0 mg/kg/injection, schedule: Q04DX002 (ip), vehicle: saline with Tween-80
  T/C: 112 % of control
dose: 90.0 mg/kg/injection, schedule: Q04DX002 (ip), vehicle: Klucel (hydroxypropylcellulose) (HPC)
  T/C: 88 % of control
dose: 120.0 mg/kg/injection, schedule: Q04DX002 (ip), vehicle: saline with Tween-80
  T/C: 114 % of control
dose: 150.0 mg/kg/injection, schedule: Q04DX002 (ip), vehicle: Klucel (hydroxypropylcellulose) (HPC)
  T/C: 83 % of control
